Where two headings read alike, the source gives them in different places.
What was measured:
[1] = tested on: fibrin-induced microglia activation; experiment: Image-based assay of fibrin-induced microglia activation (HTS and dose response); format: cell-based, rat; settings: for inhibition at 10 µM: Rattus norvegicus, Microglia, read-out: Fibrin % inhibition
[2] = tested on: LPS-induced microglia activation; experiment: Image-based assay of LPS-induced microglia activation (HTS and dose response); format: cell-based, rat
[3] = tested on: fibrin- and LPS-induced microglia activation; experiment: cells; format: cell-based, rat
primary rat microglia [4] = tested on: primary rat microglia;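 as to Fibrin % cell toxicity: share of dead cells sized under 150 µm2 at 10 µM in fibrin-stimulated microglia HTS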
primary rat microglia [5] = tested on: primary rat microglia; remark: listed apart in the source;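 as to Fibrin % cell toxicity: share of dead cells sized under 150 µm2 at 10 µM in fibrin-stimulated microglia HTS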
[6] = Rattus norvegicus, Microglia, 48 h, read-out: LPS % inhibition
[7] = primary microglia HTS, 10 μM, fibrin-stimulated, cell size >800 μm^2 as marker of activation
[8] = Rattus norvegicus, Microglia, primary microglia HTS, 10 μM, LPS-stimulated, cell size >800 μm^2 as marker of activation; read-out: LPS % inhibition
[9] = HTS of 1907 compounds, quadrant by fibrin and LPS inhibition
[10] = primary microglia HTS, fibrin stimulation, cell size >800 μm2 as marker of activation
[11] = Rattus norvegicus, Microglia, 48 h; read-out: LPS % inhibition
[12] = classification by fibrin and LPS inhibition in HTS
[13] = Rattus norvegicus, Microglia, read-out: LPS % inhibition
[14] = primary microglia HTS, fibrin stimulation, increased cell size (>800 μm^2) as marker of activation
[15] = Rattus norvegicus, Microglia, 48 h, primary microglia HTS, LPS stimulation; increased cell size (>800 μm^2) as marker of activation; read-out: LPS % inhibition
[16] = quadrant by fibrin and LPS inhibition in HTS of 1907 compounds
[17] = primary microglia HTS, fibrin stimulation, compounds at 10 μM
[18] = Rattus norvegicus, Microglia, primary microglia HTS, LPS stimulation, compounds at 10 μM; read-out: LPS % inhibition
[19] = quadrant by fibrin and LPS inhibition, HTS at 10 μM

CO/N=C(\C(=O)N[C@@H]1C(=O)N2C(C(=O)O)=C(COC(N)=O)CS[C@H]12)c1ccco1 [Cefuroxime] was tested, and the Fibrin % inhibition ([1]; primary HTS, 10 μM, fibrin-stimulated primary microglia) was 16%, the LPS % inhibition ([2]; primary HTS, 10 μM, LPS-stimulated primary microglia) was 2% and the “Quadrant (FIG. 5b)” value ([3]; primary HTS, 10 μM) was “Q4”. The “Fibrin % cell toxicity” value (primary rat microglia [4]; rat) was 1% and the “LPS % cell toxicity” value (primary rat microglia [5]; rat) was 0%.
For Cc1c(-c2cnccn2)ssc1=S [Oltipraz], the inhibition at 10 µM [1] was -2%, the inhibition at 10 µM [2, 6] was -1% and the “Quadrant (FIG. 5b)” value [3] was “Q4”. The “Fibrin % cell toxicity” value (primary rat microglia [4]; rat) was 1% and the “LPS % cell toxicity” value (primary rat microglia [5]; rat) was 0%.
With Cc1ccc(C(=O)c2cc(O)c(O)c([N+](=O)[O-])c2)cc1 [Tolcapone] the inhibition at 10 µM [1, 7] was -43%, the inhibition at 10 µM [2, 8] was 9% and the “Quadrant (FIG. 5b)” value [3, 9] was “Q4”. For the same molecule, the “Fibrin % cell toxicity” value (primary rat microglia [4]; rat) was 1% and the “LPS % cell toxicity” value (primary rat microglia [5]; rat) was 0%.
For CCn1cc(C(=O)O)c(=O)c2cnc(N3CCNCC3)nc21 [Pipemidic Acid], the inhibition at 10 µM [1, 10] was -27%, the inhibition at 10 µM [2, 11] was 12% and the “Quadrant (FIG. 5b)” value [3, 12] was “Q4”. The “Fibrin % cell toxicity” value (primary rat microglia [4]; rat) was 1% and the “LPS % cell toxicity” value (primary rat microglia [5]; rat) was 0%.
With CCCN(CCC)S(=O)(=O)c1ccc(C(=O)O)cc1 [Probenecid] the inhibition at 10 µM [1, 10] was 14%, the inhibition at 10 µM [2, 11] was 13% and the “Quadrant (FIG. 5b)” value [3, 12] was “Q4”. For the same molecule, the “Fibrin % cell toxicity” value (primary rat microglia [4]; rat) was 1% and the “LPS % cell toxicity” value (primary rat microglia [5]; rat) was 0%.
Cc1ccc(/C(=C\CN2CCCC2)c2ccccn2)cc1 [Triprolidine] was tested, and the inhibition at 10 µM [1, 7] was -24%, the inhibition at 10 µM [2, 8] was 23% and the “Quadrant (FIG. 5b)” value [3, 9] was “Q4”. For the same molecule, the “Fibrin % cell toxicity” value (primary rat microglia [4]; rat) was 1% and the “LPS % cell toxicity” value (primary rat microglia [5]; rat) was 0%.
In the case of CN(C)[C@@H]1C(O)=C(C(N)=O)C(=O)[C@@]2(O)C(O)=C3C(=O)c4c(O)cccc4[C@@](C)(O)[C@H]3C[C@@H]12 [Tetracycline], the inhibition at 10 µM [1] is reported as 7%, the inhibition at 10 µM [2, 13] is reported as 19% and the “Quadrant (FIG. 5b)” value [3] is reported as “Q4”. The “Fibrin % cell toxicity” value (primary rat microglia [4]; rat) was 0% and the “LPS % cell toxicity” value (primary rat microglia [5]; rat) was 0%.
For OC(CNCC(O)C1CCc2cc(F)ccc2O1)C1CCc2cc(F)ccc2O1 (stereo not shown) [Nebivolol], the inhibition at 10 µM [1, 14] was -10%, the inhibition at 10 µM [2, 15] was 6% and the “Quadrant (FIG. 5b)” value [3, 16] was “Q4”. For the same molecule, the “Fibrin % cell toxicity” value (primary rat microglia [4]; rat) was 1% and the “LPS % cell toxicity” value (primary rat microglia [5]; rat) was 0%.
In the case of CCCCC1C(=O)N(c2ccccc2)N(c2ccc(O)cc2)C1=O (stereo not shown) [Oxyphenbutazone], the Fibrin % inhibition [1, 14] is reported as 2%, the LPS % inhibition ([2]; primary microglia HTS, LPS stimulation; increased cell size (>800 μm^2) as marker of activation) is reported as 114% and the “Quadrant (FIG. 5b)” value [3, 16] is reported as “Q1”. The “Fibrin % cell toxicity” value (primary rat microglia [4]) was 1% and the “LPS % cell toxicity” value (primary rat microglia [5]) was 97%.
In the case of Cc1cccc(Nc2ccccc2C(=O)O)c1C [Mefenamic Acid], the inhibition at 10 µM [1, 14] is reported as -6%, the inhibition at 10 µM [2, 15] is reported as 3% and the “Quadrant (FIG. 5b)” value [3, 16] is reported as “Q4”. For the same molecule, the “Fibrin % cell toxicity” value (primary rat microglia [4]; rat) was 1% and the “LPS % cell toxicity” value (primary rat microglia [5]; rat) was 1%.
With NC(CO)C(=O)NNCc1ccc(O)c(O)c1O (stereo not shown) [Benserazide] the inhibition at 10 µM [1, 17] was -16%, the inhibition at 10 µM [2, 18] was 8% and the “Quadrant (FIG. 5b)” value [3, 19] was “Q4”. For the same molecule, the “Fibrin % cell toxicity” value (primary rat microglia [4]; rat) was 0% and the “LPS % cell toxicity” value (primary rat microglia [5]; rat) was 0%.
Cc1cc(C(C)(C)CC(C)(C)C)ccc1OCCOCC[N+](C)(C)Cc1ccccc1.[Cl-] [Methylbenzethonium Chloride] was tested, and the Fibrin % inhibition [1, 17] was 105%, the LPS % inhibition ([2]; primary microglia HTS, LPS stimulation, compounds at 10 μM) was 108% and the “Quadrant (FIG. 5b)” value [3, 19] was “Q2”. For the same molecule, the “Fibrin % cell toxicity” value (primary rat microglia [4]) was 17% and the “LPS % cell toxicity” value (primary rat microglia [5]) was 10%.
CN1CCN(C2=Nc3cc(Cl)ccc3Nc3ccccc32)CC1 [Clozapine] was tested, and the inhibition at 10 µM [1] was 3%, the inhibition at 10 µM [2, 13] was 9% and the “Quadrant (FIG. 5b)” value [3] was “Q4”. The “Fibrin % cell toxicity” value (primary rat microglia [4]; rat) was 0% and the “LPS % cell toxicity” value (primary rat microglia [5]; rat) was 0%.
With NCCCCCC(=O)O [Aminocaproic Acid] the inhibition at 10 µM [1] was 5%, the inhibition at 10 µM [2, 13] was 7% and the “Quadrant (FIG. 5b)” value [3] was “Q4”. The “Fibrin % cell toxicity” value (primary rat microglia [4]; rat) was 1% and the “LPS % cell toxicity” value (primary rat microglia [5]; rat) was 0%.
For CCCCCCCCCCCCCCCC(=O)OC[C@H](O)[C@H]1OC(=O)C(O)=C1O [Ascorbyl Palmitate], the inhibition at 10 µM [1, 17] was 38%, the inhibition at 10 µM [2, 18] was 20% and the “Quadrant (FIG. 5b)” value [3, 19] was “Q4”. The “Fibrin % cell toxicity” value (primary rat microglia [4]; rat) was 1% and the “LPS % cell toxicity” value (primary rat microglia [5]; rat) was 0%.
With CCCc1cc(=O)[nH]c(=S)[nH]1 [Propylthiouracil] the inhibition at 10 µM [1] was -4%, the inhibition at 10 µM [2, 6] was 8% and the “Quadrant (FIG. 5b)” value [3] was “Q4”. The “Fibrin % cell toxicity” value (primary rat microglia [4]; rat) was 0% and the “LPS % cell toxicity” value (primary rat microglia [5]; rat) was 0%.
With Sulfanilate Zinc the Fibrin % inhibition ([1]; 10 µM) was −6%, the LPS % inhibition ([2]; 10 µM) was 15% and the “Quadrant (FIG. 5b)” value [3] was “Q4”. The “Fibrin % cell toxicity” value (primary rat microglia [4]) was 0% and the “LPS % cell toxicity” value (primary rat microglia [5]) was 0%.

Reference: patent publication US20210330611A1, “THERAPY FOR NEUROLOGICAL DISEASES/DISORDERS” (priority 2020, published 2021)
